From patent US10034886B2, “GLP-1 receptor modulators” (Celgene International II SÀRL, priority 2014, dated 2018) come the findings set out here.

Where two headings read alike, the source gives them in different places. Bounds are passed on as bounds.

The test deals with T1, GLP-1R (Homo sapiens, UniProt P43220).
T1 construct: host or cells: GLP-1R CRE-bla CHO-K1 cells
Put plainly: EC20 GLP-1(9-36) PAM cAMP assay: dose response of compound in the presence of fixed concentration of GLP-1(9-36). The format is cell-based. The conditions noted are these: GLP-1R CRE-bla CHO-K1 cells, read-out: EC20 GLP-1(9-36) PAM EC50. The method, boiled down: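 Positive allosteric modulation read as cAMP accumulation: compound titrations (12 points) combined with an EC20 level of GLP-1(9-36) on CHO-K1 GLP-1R CRE-bla cells, IBMX present, 30 min, 37 °C, pH 7.4 buffer. Luminescence converted to cAMP via standards; non-linear fit gave EC50 and Emax.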

The mark [1] stands for this setting: dose response of compound in presence of fixed concentration of GLP-1(9-36).
Setting [2] is: compound dose response with fixed concentration of GLP-1(9-36).

T1 sequence (P43220 24-463): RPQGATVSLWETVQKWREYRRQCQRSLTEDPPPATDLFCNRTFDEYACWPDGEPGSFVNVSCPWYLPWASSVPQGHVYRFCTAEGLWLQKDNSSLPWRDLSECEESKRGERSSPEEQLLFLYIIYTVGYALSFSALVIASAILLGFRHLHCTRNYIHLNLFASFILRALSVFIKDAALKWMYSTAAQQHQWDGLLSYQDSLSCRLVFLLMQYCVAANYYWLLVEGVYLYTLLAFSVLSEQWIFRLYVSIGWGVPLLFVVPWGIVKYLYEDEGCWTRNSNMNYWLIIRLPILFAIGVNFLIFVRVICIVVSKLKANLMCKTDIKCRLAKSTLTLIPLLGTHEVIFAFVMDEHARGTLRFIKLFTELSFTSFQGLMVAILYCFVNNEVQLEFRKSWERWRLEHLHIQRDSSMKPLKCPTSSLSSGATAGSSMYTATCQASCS
T1 sequence (P01275 100-127 partner limits assumed): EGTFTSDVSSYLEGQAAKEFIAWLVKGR

`CCCCCCCOc1ccc(-c2cnc(-c3ccc(C[C@H](NC(=O)c4ccc(C5CC5)s4)C(=O)N4CC[C@H](C(=O)O)C4)cc3)nc2)cc1` [Compound 865]: under setting [1], the EC50 was in the range of 0.8 to 2.5 µM. For `Cc1cc(-c2ccc(-c3cnc(-c4ccc(C[C@H](NC(=O)c5ccc(C(C)(C)C)s5)C(=O)N5CC(C(=O)O)C5)cc4)nc3)c(F)c2)ccc1OC(F)(F)F` [Compound 1219], the EC50 under setting [2] is below 0.8 µM.

As for `CCCCCCCOc1ccc(-c2cnc(-c3ccc(C[C@H](NC(=O)c4cnc(C(C)(C)C)nc4)C(=O)N4CCC[C@H]4C(=O)O)cc3)nc2)cc1` [Compound 1078], the EC50 under setting [1] was in the range of 2.5 to 5 µM. Regarding `CCCCCCCOc1ccc(-c2cnc(-c3ccc(C[C@H](NC(=O)c4ccc(CC)cc4)C(=O)N4CC(C(=O)O)C4)cc3)nc2)cc1` [Compound 1108], the 50% effective concentration (EC50) under setting [1] is below 0.8 µM.

Consider `CCCCCCCOc1ccc(-c2cnc(-c3ccc(C[C@H](NC(=O)c4ccc(C(C)(C)C)cc4)C(=O)N[C@H](C(=O)O)C(C)(C)C)cc3)nc2)cc1` [Compound 546], for which the 50% effective concentration (EC50) under setting [1] was in the range of 0.8 to 2.5 µM. On the same count and under the same terms, under `COc1ccc(-c2cnc(-c3ccc(C[C@H](NC(=O)c4ccc(C(C)(C)C)s4)C(=O)N[C@H](C)C(=O)O)cc3)nc2)c(F)c1OCC(C)C` [Compound 1003] stands 5 to 10 µM.

For the molecule `CCc1ccc(-c2ccc(-c3cnc(-c4ccc(C[C@H](NC(=O)c5ccc(C(C)(C)C)s5)C(=O)N[C@H](C)C(=O)O)cc4)nc3)cc2)cc1` [Compound 1286], the EC50 under setting [2] was below 0.8 µM.

Regarding `CCC[C@H]1CC[C@H](C2CCN(c3cnc(-c4ccc(C[C@H](NC(=O)c5ccc(C(C)(C)C)s5)C(=O)N[C@@H](C(=O)O)C5CC5)cc4)nc3)CC2)CC1` [Compound 1444], the EC50 under setting [2] is below 0.8 µM. Take `CCCCCCCOc1ccc(-c2cnc(-c3ccc(C[C@H](NC(=O)c4ccc(C(C)(C)C)s4)C(=O)N4CCNCC4C(=O)O)cc3)nc2)cc1` (stereo partly drawn) [Compound 891]: the EC50 under setting [1] lay in the range of 0.8 to 2.5 µM. For `CCC(C)(C)c1ccc(C(=O)N[C@@H](Cc2ccc(-c3ncc(-c4ccc([C@H]5CC[C@H](CC)CC5)cc4)cn3)cc2)C(=O)O)cc1` [Compound 1375], the EC50 under setting [2] lay in the range of 0.8 to 2.5 µM.

Take `CC(C)CCCCOc1ccc(-c2cnc(-c3ccc(C[C@H](NC(=O)c4ccc(C(C)(C)C)s4)C(=O)NC(C(=O)O)C(O)c4ccccc4)cc3)nc2)cc1` (stereo partly drawn) [Compound 923]: under setting [1], the EC50 was 0.8 to 2.5 µM. Turning to `CC(C)(C)c1ccc(C(=O)N[C@@H](Cc2ccc(-c3ncc(-c4ccc(OC5CCCCC5)cc4)cn3)cc2)C(=O)N2CC(C(=O)O)C2)s1` [Compound 921], the concentration giving a half-maximal response (EC50) under setting [1] is 5 to 10 µM. As for `CN(CCC(C)(O)c1cccc(OC(F)(F)F)c1)c1cnc(-c2ccc(CC(NC(=O)c3ccc(C(C)(C)C)s3)C(=O)N3CC(C(=O)O)C3)cc2)nc1` (stereo not drawn) [Compound 1485], the 50% effective concentration (EC50) under setting [2] is below 0.8 µM. On the same count and under the same terms, under `CC[C@H]1CC[C@H](c2ccc(-c3cnc(-c4ccc(C[C@H](NC(=O)c5ccc(CC(C)C)s5)C(=O)O)cc4)nc3)cc2)CC1` [Compound 1381] stands 5 to 10 µM. For `CCCCCCCOc1ccc(-c2cnc(-c3ccc(C[C@H](NC(=O)c4ccc(C(C)(C)C)cc4)C(=O)NC(C(=O)O)c4ccc(OC)cc4)cc3)nc2)cc1` (stereo partly drawn) [Compound 543], under setting [1], the EC50 is below 0.8 µM. As for `CC(C)(C)c1ccc(C(=O)N[C@@H](Cc2ccc(-c3ncc(-c4ccc(-c5ccccc5)c(F)c4)cn3)cc2)C(=O)O)s1` [Compound 1351], the EC50 under setting [2] is 2.5 to 5 µM. On the same count and under the same terms, the value for `CCC[C@H]1CC[C@H](C2CCN(c3cnc(-c4ccc(C[C@H](NC(=O)c5ccc(C6CC6)s5)C(=O)N5CC(C(=O)O)C5)cc4)nc3)CC2)CC1` [Compound 1515] was below 0.8 µM; that for `CC[C@H]1CC[C@H](c2ccc(-c3cnc(-c4ccc(C[C@H](NC(=O)c5ccc(C(C)=O)cc5)C(=O)O)cc4)nc3)cc2)CC1` [Compound 1376] was 0.8 to 2.5 µM. Take `CCCCCCCCOc1ccc(-c2cnc(-c3ccc(C[C@H](NC(=O)c4ccc(C(C)(C)C)s4)C(=O)N[C@H](C)C(=O)O)cc3)nc2)cc1` [Compound 736]: the half-maximal effective concentration (EC50) under setting [1] is below 0.8 µM. Regarding `CC(C)(C)c1ccc(C(=O)N[C@@H](Cc2ccc(-c3ncc(-c4ccc(OC5CC5)cc4)cn3)cc2)C(=O)NC(C(=O)O)C(O)c2ccccc2)s1` (stereo partly drawn) [Compound 930], under setting [1], the concentration giving a half-maximal response (EC50) lay in the range of 5 to 10 µM. As to `CCCCc1ccc(C2CCN(c3cnc(-c4ccc(C[C@H](NC(=O)c5ccc(C(C)(C)C)s5)C(=O)N5CC(C(=O)O)C5)cc4)nc3)CC2)cc1` [Compound 1412, (S)-1-(2-(5-(tert-butyl)thiophene-2-carboxamido)-3-(4-(5-(4-(4-butylphenyl)-piperidin-1-yl)pyrimidin-2-yl)phenyl)propanoyl)azetidine-3-carboxylic acid], the EC50 under setting [2] is below 0.8 µM. Take `CCCCCCCOc1ccc(-c2cnc(-c3ccc(C[C@H](NC(=O)c4ccc(C(C)(C)C)cc4)C(=O)NCC(Cc4ccc(O)cc4)C(=O)O)cc3)nc2)cc1` (stereo partly drawn) [Compound 558]: under setting [1], the 50% effective concentration (EC50) is below 0.8 µM.

Turning to `Cc1cc(-c2cnc(-c3ccc(C[C@H](NC(=O)c4ccc(C(C)(C)C)s4)C(=O)N4CCC[C@H]4C(=O)O)cc3)nc2)ccc1OC(C)C` [Compound 1127], the half-maximal effective concentration (EC50) under setting [1] was in the range of 0.8 to 2.5 µM.

`CCC[C@H]1CC[C@H](C2CCN(c3cnc(-c4ccc(C[C@H](NC(=O)c5ccn(C(C)(C)C)c5)C(=O)N5CC(C(=O)O)C5)cc4)nc3)CC2)CC1` [Compound 1532]: the EC50 under setting [2] is below 0.8 µM. With `CCC(CC)Oc1ccc(-c2cnc(-c3ccc(C[C@H](NC(=O)c4ccc(C(C)(C)C)s4)C(=O)NC(C(=O)O)C(O)c4ccccc4)cc3)nc2)cc1` (stereo partly drawn) [Compound 935], under setting [1], the EC50 is 2.5 to 5 µM. Consider `Cc1cc(F)ccc1-c1ccc(-c2cnc(-c3ccc(C[C@H](NC(=O)c4ccc(C(C)(C)C)s4)C(=O)N4CC(C(=O)O)C4)cc3)nc2)c(F)c1` [Compound 1206], for which, under setting [2], the EC50 fell in the range of 0.8 to 2.5 µM. For the molecule `CC(C)(C)c1ccc(C(=O)NC(Cc2ccc(-c3ncc(N4CCC(c5ccc(Br)cc5)CC4)cn3)cc2)C(=O)N2CC(C(=O)O)C2)s1` (stereo not drawn) [Compound 1487], the concentration for a half-maximal effect (EC50) under setting [2] fell in the range of 0.8 to 2.5 µM. Same read-out and setting: the value for `CC(C)Oc1ccc(-c2ccc(-c3cnc(-c4ccc(C[C@H](NC(=O)c5ccc(C(C)(C)C)s5)C(=O)N[C@H](C)C(=O)O)cc4)nc3)cc2)cc1` [Compound 1295] was 0.8 to 2.5 µM. Regarding `CCCCCC(=O)c1ccc(-c2cnc(-c3ccc(C[C@H](NC(=O)c4ccc(C(C)(C)C)cc4)C(=O)NCCC(=O)O)cc3)nc2)cc1` [Compound 690], under setting [1], the EC50 lay within 2.5 to 5 µM.

In the case of `C[C@@H](NC(=O)[C@H](Cc1ccc(-c2ncc(N3CCN(c4ccc(C(C)(C)C)cc4)C3=O)cn2)cc1)NC(=O)c1ccc(C(C)(C)C)s1)C(=O)O` [Compound 1268], under setting [2], the EC50 is below 0.8 µM. Turning to `CC(=O)c1ccc(-c2ccc(-c3cnc(-c4ccc(C[C@H](NC(=O)c5ccc(C(C)(C)C)s5)C(=O)N[C@H](C)C(=O)O)cc4)nc3)cc2)cc1` [Compound 1292], the EC50 under setting [2] was below 0.8 µM. Regarding `CCCCCC(=O)c1ccc(-c2cnc(-c3ccc(C[C@H](NC(=O)c4ccc(C(C)(C)C)s4)C(=O)N[C@H](C)C(=O)O)cc3)nc2)cc1` [Compound 738], the 50% effective concentration (EC50) under setting [1] was below 0.8 µM. For `CCCCCCCOc1ccc(-c2cnc(-c3ccc(C[C@H](NC(=O)c4ccc(C(C)(C)C)s4)C(=O)NC(C(=O)O)C(O)c4cncnc4)cc3)nc2)cc1` (stereo partly drawn) [Compound 904], the EC50 under setting [1] was 2.5 to 5 µM. Same read-out and setting: under `CCCCCCCOc1ccc(-c2cnc(-c3ccc(C[C@H](NC(=O)c4ccc(C(C)(C)C)cc4OC)C(=O)N4CC[C@H](C(=O)O)C4)cc3)nc2)cc1` [Compound 852] stands 2.5 to 5 µM; under `CCCCCCCOc1ccc(-c2cnc(-c3ccc(C[C@H](NC(=O)c4ccc(OCCC)cc4)C(=O)N4CCC[C@H]4C(=O)O)cc3)nc2)cc1` [Compound 1071], 2.5 to 5 µM. Turning to `C[C@@H](NC(=O)[C@H](Cc1ccc(-c2ncc(OCc3ccc(C(F)(F)F)cc3)cn2)cc1)NC(=O)c1ccc(C(C)(C)C)s1)C(=O)O` [Compound 1272], the half-maximal effective concentration (EC50) under setting [2] was 5 to 10 µM.

With `CCCCCCCOc1ccc(-c2cnc(-c3ccc(C[C@H](NC(=O)c4ccc(C(C)(C)C)s4)C(=O)N[C@@H](CCN)C(=O)O)cc3)nc2)cc1` [Compound 410, (S)-4-amino-2-((S)-2-(5-(tert-butyl)thiophene-2-carboxamido)-3-(4-(5-(4-(heptyloxy)phenyl)pyrimidin-2-yl)phenyl)propanamido)butanoic acid], the EC50 under setting [1] was in the range of 0.8 to 2.5 µM. On to `CCCCCCCOc1ccc(-c2cnc(-c3ccc(CC(NC(=O)c4ccc(C(C)(C)C)s4)C(=O)N[C@@H](CCCNC(=N)N)C(=O)O)cc3)nc2)cc1` (stereo partly drawn) [Compound 425], for which the concentration for a half-maximal effect (EC50) under setting [1] was 2.5 to 5 µM. With `CC(C)CCCCOc1ccc(-c2cnc(-c3ccc(C[C@H](NC(=O)c4ccc(C(C)(C)C)s4)C(=O)N[C@H](C)C(=O)O)cc3)nc2)cc1` [Compound 770], the EC50 under setting [1] was below 0.8 µM. The same measure, in the same setting: the value for `CCCCCCCOc1ccc(-c2cnc(-c3ccc(C[C@H](NC(=O)c4ccc(C(C)(C)C)s4)C(=O)N[C@@H](CC(=O)O)C(N)=O)cc3)nc2)cc1` [Compound 525] was below 0.8 µM; that for `CCCCCCCOc1ccc(-c2cnc(-c3ccc(C[C@H](NC(=O)c4ccc(C(C)(C)C)s4)C(=O)NC[C@@H](CO)C(=O)O)cc3)nc2)cc1` [Compound 461] was 0.8 to 2.5 µM; that for `CCCCCCCOc1ccc(-c2cnc(-c3ccc(C[C@H](NC(=O)c4ccc(C(C)(C)C)cc4C)C(=O)N[C@H](C)C(=O)O)cc3)nc2)cc1` [Compound 843] was 0.8 to 2.5 µM. Same read-out and setting: the value for `CCCCCCc1nnc(-c2cnc(-c3ccc(C[C@H](NC(=O)c4ccc(C(C)(C)C)cc4)C(=O)O)cc3)nc2)s1` [Compound 397, (S)-2-(4-(tert-butyl)benzamido)-3-(4-(5-(5-hexyl-1,3,4-thiadiazol-2-yl)pyrimidin-2-yl)phenyl)propanoic acid] was 2.5 to 5 µM. In the case of `CCC[C@H]1CC[C@@H](N2CCN(c3cnc(-c4ccc(C[C@H](NC(=O)c5ccc(C(C)(C)C)s5)C(=O)N5CC(C(=O)O)C5)cc4)nc3)CC2)CC1` [Compound 1436], the EC50 under setting [2] was in the range of 0.8 to 2.5 µM. Take `CCCCCCCOc1ccc(-c2cnc(-c3ccc(C[C@H](NC(=O)c4ccc(C(C)(C)C)s4)C(=O)NC[C@H]4C[C@H](N)C4)cc3)nc2)cc1` [Compound 879]: the EC50 under setting [1] was in the range of 2.5 to 5 µM.
